According to PMC8102066 (eLife, 2021):
Where “and” joins values, the source holds several entries; their conditions need not be identical. Identical values can stand only once. Like-named read-outs stand apart in the source and are kept apart here.

Experiments:
mGluR2-C121A = biological target: T1, mGluR2-C121A (Rattus norvegicus, UniProt P31421, C121A); assay: SiMPull subunit counting in the presence of ligands; conditions: SNAP-mGluR2-C121A in presence of the ligand; single replicates per experiment day
T1 construct: expressed in transfected cells; host or cells: HEK 293 T (detergent lysate, pulled down by anti-HA antibody)
T1 sequence (P31421 19-872 C121A): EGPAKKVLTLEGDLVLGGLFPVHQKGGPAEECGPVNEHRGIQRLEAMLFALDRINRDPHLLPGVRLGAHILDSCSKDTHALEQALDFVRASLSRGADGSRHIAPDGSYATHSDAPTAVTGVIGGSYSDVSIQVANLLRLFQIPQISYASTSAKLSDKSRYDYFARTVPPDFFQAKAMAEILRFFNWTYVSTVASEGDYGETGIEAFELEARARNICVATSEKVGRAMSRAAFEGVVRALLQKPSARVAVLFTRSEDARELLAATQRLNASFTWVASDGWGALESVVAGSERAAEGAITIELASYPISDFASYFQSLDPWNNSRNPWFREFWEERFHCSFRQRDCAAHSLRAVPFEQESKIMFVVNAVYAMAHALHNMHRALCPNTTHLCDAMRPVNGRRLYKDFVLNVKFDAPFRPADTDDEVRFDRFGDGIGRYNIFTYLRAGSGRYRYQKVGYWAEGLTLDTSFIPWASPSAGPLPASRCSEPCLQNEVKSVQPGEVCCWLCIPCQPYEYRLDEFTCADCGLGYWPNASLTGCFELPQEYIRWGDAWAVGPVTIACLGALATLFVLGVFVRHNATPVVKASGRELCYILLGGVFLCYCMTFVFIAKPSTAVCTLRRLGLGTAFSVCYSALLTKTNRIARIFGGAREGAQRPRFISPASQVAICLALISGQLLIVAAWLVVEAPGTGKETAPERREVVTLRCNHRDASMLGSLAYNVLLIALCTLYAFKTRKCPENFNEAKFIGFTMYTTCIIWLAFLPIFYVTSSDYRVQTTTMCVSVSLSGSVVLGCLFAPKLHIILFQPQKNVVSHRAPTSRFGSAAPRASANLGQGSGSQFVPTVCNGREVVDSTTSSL

mGluR2 = mGluR2 (Rattus norvegicus, UniProt P31421); assay: GIRK channel whole cell patch clamp in HEK 293 T cells
mGluR2, sequence (P31421 19-872): as the sequence (P31421 19-872 C121A) above, with A103C counted along it

mGluR3-C127A-I788A = mGluR3-C127A-I788A (Rattus norvegicus, UniProt P31422, C127A/I788A); assay: SiMPull subunit counting in the presence of ligands
mGluR3-C127A-I788A, sequence (P31422 23-879 C127A/I788A): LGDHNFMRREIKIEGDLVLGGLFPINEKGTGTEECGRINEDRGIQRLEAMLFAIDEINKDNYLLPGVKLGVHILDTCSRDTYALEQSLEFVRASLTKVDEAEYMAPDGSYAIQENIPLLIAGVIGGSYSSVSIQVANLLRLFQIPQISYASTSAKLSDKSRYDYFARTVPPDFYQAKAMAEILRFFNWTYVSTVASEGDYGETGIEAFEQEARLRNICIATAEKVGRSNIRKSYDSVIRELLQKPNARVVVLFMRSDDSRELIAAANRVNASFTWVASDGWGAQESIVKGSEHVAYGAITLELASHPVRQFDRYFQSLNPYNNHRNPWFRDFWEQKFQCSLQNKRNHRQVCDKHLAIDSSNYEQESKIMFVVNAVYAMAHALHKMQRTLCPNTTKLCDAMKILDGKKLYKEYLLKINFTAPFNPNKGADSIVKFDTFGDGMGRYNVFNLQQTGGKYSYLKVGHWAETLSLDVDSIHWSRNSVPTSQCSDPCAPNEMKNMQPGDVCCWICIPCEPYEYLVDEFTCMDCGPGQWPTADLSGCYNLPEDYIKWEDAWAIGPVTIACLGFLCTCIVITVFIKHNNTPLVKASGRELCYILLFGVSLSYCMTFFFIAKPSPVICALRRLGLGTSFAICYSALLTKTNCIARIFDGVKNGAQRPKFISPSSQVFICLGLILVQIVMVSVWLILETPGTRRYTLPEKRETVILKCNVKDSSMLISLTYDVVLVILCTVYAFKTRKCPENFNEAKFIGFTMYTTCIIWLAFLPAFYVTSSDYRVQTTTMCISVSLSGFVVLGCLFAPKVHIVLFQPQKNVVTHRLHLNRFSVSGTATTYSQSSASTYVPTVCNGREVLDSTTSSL

mGluR3-F690A = mGluR3-F690A (Rattus norvegicus, UniProt P31422, F690A); assay: Calcium imaging in HEK 293 T cells; conditions: for Calcium response amplitude: mGluR3-F681A
mGluR3-F690A, sequence (P31422 23-879 F690A): as the sequence (P31422 23-879 C127A/I788A) above, with A105C, F668A, A766I counted along it

mGluR2-C121A-3xTM4-I779A = biological target: T2, mGluR2-C121A-3xTM4-I779A (Rattus norvegicus, UniProt P31421, A677S/A681F/A685G/C121A/I779A); assay: SiMPull subunit counting in the presence of ligands; conditions: SNAP-mGluR2-C121A-3xTM4-I779A in presence of the ligand; single replicates per experiment day
T2 construct: expressed in transfected cells; host or cells: HEK 293 T (detergent lysate, pulled down by anti-HA antibody)
T2 sequence (P31421 19-872 C121A/A677S/A681F/A685G/I779A): as the sequence (P31421 19-872 C121A) above, with A659S, A663F, A667G, I761A counted along it

mGluR3 = mGluR3 (Rattus norvegicus, UniProt P31422); assay: Calcium imaging (G protein chimera, GCaMP6f) in HEK 293 T cells
mGluR3, sequence (P31422 23-879): as the sequence (P31422 23-879 C127A/I788A) above, with A105C, A766I counted along it

mGluR3-3xTM4 [1] = biological target: T3, mGluR3-3xTM4 (Rattus norvegicus, UniProt P31422, F690A/G694A/S686A); assay: Inter-LBD FRET (N-terminal SNAP-tags), live cells; conditions: for FRET response amplitude: mGluR3-3xTM4, inter-LBD FRET
T3 sequence (P31422 23-879 S686A/F690A/G694A): as the sequence (P31422 23-879 C127A/I788A) above, with A105C, S664A, F668A, G672A, A766I counted along it

mGluR3-S686A = mGluR3-S686A (Rattus norvegicus, UniProt P31422, S686A); assay: Calcium imaging in HEK 293 T cells
mGluR3-S686A, sequence (P31422 23-879 S686A): as the sequence (P31422 23-879 C127A/I788A) above, with A105C, S664A, A766I counted along it

mGluR3-3xTM4 [2] = biological target: T3, mGluR3-3xTM4; assay: GIRK channel whole cell patch clamp in HEK 293 T cells; conditions: for GIRK current amplitude: mGluR3 3xTM4
mGluR3-C127A-3xTM4 = mGluR3-C127A-3xTM4 (Rattus norvegicus, UniProt P31422, C127A/F690A/G694A/S686A); assay: SiMPull subunit counting in the presence of ligands; conditions: SNAP-mGluR3-C127A-3xTM4 in presence of the ligand; single replicates per experiment day
mGluR3-C127A-3xTM4, sequence (P31422 23-879 C127A/S686A/F690A/G694A): as the sequence (P31422 23-879 C127A/I788A) above, with S664A, F668A, G672A, A766I counted along it

mGluR2-3xTM4 = biological target: T4, mGluR2-3xTM4 (Rattus norvegicus, UniProt P31421, A677S/A681F/A685G/INS660ASEIGTGFPFDPHYVEVLGERMHYVDVGPRDGTPVLFLHGNPTSSYVWRNIIPHVAPTHRCIAPDLIGMGKSDKPDLGYFFDDHVRFMDAFIEALGLEEVVLVIHDWGSALGFHWAKRNPERVKGIAFMEFIRPIPTWDEWPEFARETFQAFRTTDVGRKLIIDQNVFIEGTLPMGVVRPLTEVEMDHYREPFLNPVDREPLWRFPNELPIAGEPANIVALVEEYMDWLHQSPVPKLLFWGTPGVLIPPAEAARLAKSLPNCKAVDIGPGLNLLQEDNPDLIGSEIARWLSTLEISGLE); assay: Inter-TMD FRET sensor (HaloTag in ICL2), live cells; assay type: cell-based
T4 construct: expressed in transfected cells; host or cells: HEK 293T
T4 sequence (P31421 with tags, fused parts or gaps with the stated changes): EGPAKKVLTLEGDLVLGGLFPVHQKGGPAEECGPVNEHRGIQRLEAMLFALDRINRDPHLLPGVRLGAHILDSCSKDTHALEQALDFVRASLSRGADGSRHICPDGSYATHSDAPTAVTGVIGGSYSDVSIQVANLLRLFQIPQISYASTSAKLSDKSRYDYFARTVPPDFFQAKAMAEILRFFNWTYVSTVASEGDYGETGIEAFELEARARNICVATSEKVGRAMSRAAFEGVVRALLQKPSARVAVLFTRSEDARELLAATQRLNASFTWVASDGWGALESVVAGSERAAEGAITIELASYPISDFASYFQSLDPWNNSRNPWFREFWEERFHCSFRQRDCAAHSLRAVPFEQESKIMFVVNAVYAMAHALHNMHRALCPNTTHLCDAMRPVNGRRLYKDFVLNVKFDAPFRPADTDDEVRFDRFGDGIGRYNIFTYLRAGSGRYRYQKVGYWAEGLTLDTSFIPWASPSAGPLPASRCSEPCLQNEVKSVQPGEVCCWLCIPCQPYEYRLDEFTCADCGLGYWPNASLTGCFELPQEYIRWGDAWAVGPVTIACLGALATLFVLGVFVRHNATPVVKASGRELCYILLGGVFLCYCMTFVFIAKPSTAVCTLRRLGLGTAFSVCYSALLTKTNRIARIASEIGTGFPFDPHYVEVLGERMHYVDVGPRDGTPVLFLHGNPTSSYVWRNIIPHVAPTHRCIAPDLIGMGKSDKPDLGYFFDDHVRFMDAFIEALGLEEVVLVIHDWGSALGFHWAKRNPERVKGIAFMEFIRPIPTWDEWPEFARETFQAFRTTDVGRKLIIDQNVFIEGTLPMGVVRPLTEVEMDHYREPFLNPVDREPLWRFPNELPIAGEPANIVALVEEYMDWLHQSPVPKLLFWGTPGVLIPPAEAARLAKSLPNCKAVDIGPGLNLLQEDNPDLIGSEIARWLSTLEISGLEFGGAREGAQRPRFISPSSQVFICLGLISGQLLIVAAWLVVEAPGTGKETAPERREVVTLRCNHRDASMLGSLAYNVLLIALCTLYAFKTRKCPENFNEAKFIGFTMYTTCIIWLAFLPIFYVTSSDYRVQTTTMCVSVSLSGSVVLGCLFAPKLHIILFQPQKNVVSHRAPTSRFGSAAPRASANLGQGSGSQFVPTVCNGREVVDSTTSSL

[3] = read-out: Glutamate EC50, calcium imaging, normalized to saturating (1 mM) glutamate

SMILES: N[C@@H](CCC(=O)O)C(=O)O [glutamate]
- % Dimerization (mGluR2-C121A): 86.45% and 81.10% and 91.37% and 96.00% and 70.30% and 76.67%
- GIRK current amplitude (mGluR2; Glutamate 10 nM): 0.000
- GIRK current amplitude (mGluR2; Glutamate 10 uM): 0.889 and 0.827 and 0.749 and 0.879 and 0.952
- GIRK current amplitude (mGluR2; Glutamate 100 uM): 0.942 and 1.150 and 0.849 and 0.991
- GIRK current amplitude (mGluR2; Glutamate 1 mM): 1.000
- % Dimerization (mGluR3-C127A-I788A; SNAP-mGluR3-C127A-I788A in presence of the ligand, single replicates per experiment day): 41.49% and 28.78% and 34.64% and 33.27% and 41.72% and 37.93%
- effect of ligand on dimerization (SiMPull) (mGluR3-C127A-I788A; saturating concentration): no difference
- Calcium response amplitude (mGluR3-F690A; Glutamate 10 nM): 0.00
- Calcium response amplitude (mGluR3-F690A; Glutamate 100 nM): 0.00
- Calcium response amplitude (mGluR3-F690A; Glutamate 3 uM): 0.33 and 0.27
- Calcium response amplitude (mGluR3-F690A; Glutamate 10 uM): 0.40 and 0.44 and 0.57 and 0.58
- Calcium response amplitude (mGluR3-F690A; Glutamate 100 uM): 1.00 and 0.86
- Calcium response amplitude (mGluR3-F690A; Glutamate 1 mM): 1.00
- EC50 (mGluR3-F690A; [3]): 9.59 ± 0.06 µM
- % Dimerization (mGluR2-C121A-3xTM4-I779A): 44.05% and 34.78% and 55.93% and 49.13% and 47.14% and 45.12%
- Calcium response amplitude (mGluR3; Glutamate 1 nM, mGluR3): 0.00
- Calcium response amplitude (mGluR3; Glutamate 1 nM, normalized to 1 mM glutamate, replicates): 0.00
- Calcium response amplitude (mGluR3; Glutamate 10 nM, mGluR3): 0.00
- Calcium response amplitude (mGluR3; Glutamate 10 nM, normalized to 1 mM glutamate, replicates): 0.00
- Calcium response amplitude (mGluR3; Glutamate 100 nM, mGluR3): 0.23
- Calcium response amplitude (mGluR3; Glutamate 100 nM, normalized to 1 mM glutamate, replicates): 0.23
- Calcium response amplitude (mGluR3; Glutamate 1 uM, mGluR3): 0.61 and 0.64 and 0.67 and 0.55
- Calcium response amplitude (mGluR3; Glutamate 1 uM, normalized to 1 mM glutamate, replicates): 0.61 and 0.64 and 0.67 and 0.55
- Calcium response amplitude (mGluR3; Glutamate 2 uM, mGluR3): 0.66 and 0.77
- Calcium response amplitude (mGluR3; Glutamate 2 uM, normalized to 1 mM glutamate, replicates): 0.66 and 0.77
- Calcium response amplitude (mGluR3; Glutamate 3 uM, mGluR3): 0.83 and 0.79
- Calcium response amplitude (mGluR3; Glutamate 3 uM, normalized to 1 mM glutamate, replicates): 0.83 and 0.79
- Calcium response amplitude (mGluR3; Glutamate 5 uM, mGluR3): 0.89 and 0.95 and 0.77
- Calcium response amplitude (mGluR3; Glutamate 5 uM, normalized to 1 mM glutamate, replicates): 0.89 and 0.95 and 0.77
- Calcium response amplitude (mGluR3; Glutamate 10 uM, mGluR3): 0.99 and 0.95 and 0.92
- Calcium response amplitude (mGluR3; Glutamate 10 uM, normalized to 1 mM glutamate, replicates): 0.99 and 0.95 and 0.92
- Calcium response amplitude (mGluR3; Glutamate 1 mM, mGluR3): 1.00
- Calcium response amplitude (mGluR3; Glutamate 1 mM, normalized to 1 mM glutamate, replicates): 1.00
- EC50 (mGluR3; [3]): 560 ± 60 nM
- FRET response amplitude (mGluR3-3xTM4 [1]; Glutamate 1 nM): 0.00
- FRET response amplitude (mGluR3-3xTM4 [1]; Glutamate 10 nM): 0.00
- FRET response amplitude (mGluR3-3xTM4 [1]; Glutamate 1 uM): 0.63 and 0.58
- FRET response amplitude (mGluR3-3xTM4 [1]; Glutamate 3 uM): 0.78 and 0.90
- FRET response amplitude (mGluR3-3xTM4 [1]; Glutamate 10 uM): 0.99 and 0.96 and 1.05
- FRET response amplitude (mGluR3-3xTM4 [1]; Glutamate 1 mM): 1.00
- EC50 (mGluR3-3xTM4 [1]; read-out: Glutamate EC50, LBD FRET, normalized to saturating (1 mM) glutamate, unit inferred): 670 ± 50 nM
- EC50 (mGluR3-S686A; read-out: Glutamate EC50 (micromolar), calcium imaging, Fig 3F source data): 5.11 µM
- EC50 (mGluR3-S686A; [3]): 5.12 ± 0.06 µM
- GIRK current amplitude (mGluR3-3xTM4 [2]; Glutamate 10 nM): 0.000
- GIRK current amplitude (mGluR3-3xTM4 [2]; Glutamate 10 uM): 0.695 and 0.866
- GIRK current amplitude (mGluR3-3xTM4 [2]; Glutamate 100 uM): 1.078 and 0.767 and 0.806
- GIRK current amplitude (mGluR3-3xTM4 [2]; Glutamate 1mM): 1.000
- EC50 (mGluR3-3xTM4 [2]; read-out: Glutamate EC50, GIRK activation, normalized to saturating (1 mM) glutamate, unit inferred): 1020 ± 170 nM
- % Dimerization (mGluR3-C127A-3xTM4): 75.71% and 66.43% and 55.31% and 68.06% and 59.35% and 70.85%
- FRET response amplitude (mGluR2-3xTM4; Glutamate 10 nM): 0.00
- FRET response amplitude (mGluR2-3xTM4; Glutamate 100 nM): 0.0446
- FRET response amplitude (mGluR2-3xTM4; Glutamate 1 uM): 0.14 and 0.10 and 0.11
- FRET response amplitude (mGluR2-3xTM4; Glutamate 10 uM): 0.89 and 0.71
- FRET response amplitude (mGluR2-3xTM4; Glutamate 100 uM): 1.00
- FRET response amplitude (mGluR2-3xTM4; Glutamate 1 mM): 1.00
